In this assay the target is T1, human M1 receptor (hCHRM1) (Homo sapiens, UniProt P11229).
T1 construct: expressed in transfected cells; host or cells: CHO-K1
T1 sequence (P11229 1-460): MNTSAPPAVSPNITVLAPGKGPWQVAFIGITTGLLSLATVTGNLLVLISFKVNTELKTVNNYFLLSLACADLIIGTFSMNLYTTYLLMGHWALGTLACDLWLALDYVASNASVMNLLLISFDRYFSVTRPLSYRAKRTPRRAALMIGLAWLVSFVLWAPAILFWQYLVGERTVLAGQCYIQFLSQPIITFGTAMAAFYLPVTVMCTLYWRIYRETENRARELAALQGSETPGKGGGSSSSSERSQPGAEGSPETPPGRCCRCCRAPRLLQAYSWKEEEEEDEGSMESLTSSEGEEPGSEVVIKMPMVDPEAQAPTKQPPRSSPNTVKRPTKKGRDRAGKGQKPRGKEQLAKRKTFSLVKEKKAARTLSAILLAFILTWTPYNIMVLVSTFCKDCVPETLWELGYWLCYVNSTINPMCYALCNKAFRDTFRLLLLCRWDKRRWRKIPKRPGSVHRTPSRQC
Put plainly: Measurement of M1 receptor positive allosteric modulator (M1PAM) activity, calcium fluorescence (FLIPRtetra) in CHO-K1 cells in the presence of acetylcholine at EC20. Type of assay: cell-based. The settings on record: in the presence of acetylcholine at EC20 (final 0.6 nM), CHO-K1 cells expressing hCHRM1; for EC50: inflection point of M1PAM activity, read-out: IP value; for activity (%) at 10 μM: test compound 10 μM. Summed up:
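PAM activity was measured as calcium flux by FLIPRtetra over 1 min after co-addition of compound and EC20 acetylcholine (final 0.6 nM) to Fluo-4-loaded hCHRM1 CHO-K1 cells. The response was scaled between DMSO (0%) and 1 μM acetylcholine (100%), and the inflection point of the concentration curve gives the IP value.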

Turning to `Cn1cc(-c2ccc(CN3Cc4ccnc(Oc5ccc(C(F)F)cc5F)c4C3=O)cc2)cn1` [Example 391, 4-(4-(difluoromethyl)-2-fluorophenoxy)-2-(4-(1-methyl-1H-pyrazol-4-yl)benzyl)-1,2-dihydro-3H-pyrrolo[3,4-c]pyridin-3-one], the EC50 stood at 10 nM and the “activity (%) at 10 μM” value was found to be 100%.
The corresponding values for `Cc1cc(-c2ccc(CN3Cc4ccnc(Oc5ccc(C(F)F)cc5F)c4C3=O)cc2)cnn1` [Example 392, 4-(4-(difluoromethyl)-2-fluorophenoxy)-2-(4-(6-methylpyridazin-4-yl)benzyl)-1,2-dihydro-3H-pyrrolo[3,4-c]pyridin-3-one] are 16 nM and 105%.
Consider `Cn1cc(-c2ccc(CN3Cc4ccnc(Oc5ccc(C(O)C(F)(F)F)cc5F)c4C3=O)cc2)cn1` (centres unmarked) [Example 393, 4-(2-fluoro-4-(2,2,2-trifluoro-1-hydroxyethyl)phenoxy)-2-(4-(1-methyl-1H-pyrazol-4-yl)benzyl)-1,2-dihydro-3H-pyrrolo[3,4-c]pyridin-3-one], for which the EC50 came to 5 nM and the “activity (%) at 10 μM” value is 89%.
Turning to `CC(O)c1ccc(Oc2nccc3c2C(=O)N(Cc2ccc(-c4cnn(C)c4)cc2)C3)c(F)c1` (centres unmarked) [Example 394, 4-(2-fluoro-4-(1-hydroxyethyl)phenoxy)-2-(4-(1-methyl-1H-pyrazol-4-yl)benzyl)-1,2-dihydro-3H-pyrrolo[3,4-c]pyridin-3-one], the EC50 was 7.1 nM and the “activity (%) at 10 μM” value is reported as 109%.
`Cn1ccc(-c2ccc(CN3Cc4ncnc(Oc5c(F)cccc5F)c4C3=O)cc2)n1` [Example 395, 4-(2,6-difluorophenoxy)-6-(4-(1-methyl-1H-pyrazol-3-yl)benzyl)-6,7-dihydro-5H-pyrrolo[3,4-d]pyrimidin-5-one]: the EC50 was determined as 65 nM and the “activity (%) at 10 μM” value amounted to 96%.
In the case of `Cn1cc(-c2ccc(CN3Cc4ncnc(Oc5c(F)cccc5Cl)c4C3=O)cc2)cn1` [Example 396, 4-(2-chloro-6-fluorophenoxy)-6-(4-(1-methyl-TH-pyrazol-4-yl)benzyl)-6,7-dihydro-5H-pyrrolo[3,4-d]pyrimidin-5-one], the EC50 came to 33 nM and the “activity (%) at 10 μM” value amounted to 95%.
Regarding `Cn1cc(-c2ccc(CN3Cc4ccnc(Oc5c(F)cccc5Cl)c4C3=O)cc2)cn1` [Example 397, 4-(2-chloro-6-fluorophenoxy)-2-(4-(1-methyl-1H-pyrazol-4-yl)benzyl)-1,2-dihydro-3H-pyrrolo[3,4-c]pyridin-3-one], the EC50 was 25 nM and the “activity (%) at 10 μM” value was determined as 95%.
With `Cc1cc(-c2ccc(CN3Cc4cccc(Oc5c(F)cc(C#N)cc5F)c4C3=O)cc2)cnn1` [Example 398, 3,5-difluoro-4-((2-(4-(6-methylpyridazin-4-yl)benzyl)-3-oxo-2,3-dihydro-1H-isoindol-4-yl)oxy)benzonitrile], the EC50 was found to be 20 nM and the “activity (%) at 10 μM” value came out at 99%.
`Cc1nn(C)cc1-c1ccc(CN2Cc3ccnc(OC4CCC4)c3C2=O)cc1` [Example 403, 4-(cyclobutyloxy)-2-(4-(1,3-dimethyl-1H-pyrazol-4-yl)benzyl)-1,2-dihydro-3H-pyrrolo[3,4-c]pyridin-3-one]: the EC50 came to 57 nM and the “activity (%) at 10 μM” value amounted to 102%.
Regarding `CCn1cc(-c2ccc(CN3Cc4ccnc(OC5CCC5)c4C3=O)cc2)cn1` [Example 404, 4-(cyclobutyloxy)-2-(4-(1-ethyl-1H-pyrazol-4-yl)benzyl)-1,2-dihydro-3H-pyrrolo[3,4-c]pyridin-3-one], the EC50 amounted to 53 nM and the “activity (%) at 10 μM” value amounted to 87%.
`Cn1cc(-c2ccc(CN3Cc4ccnc(Oc5ccc(CC#N)cc5F)c4C3=O)cc2)cn1` [Example 405, (3-fluoro-4-((2-(4-(1-methyl-1H-pyrazol-4-yl)benzyl)-3-oxo-2,3-dihydro-1H-pyrrolo[3,4-c]pyridin-4-yl)oxy)phenyl)acetonitrile]: the EC50 stood at 1.8 nM and the “activity (%) at 10 μM” value is listed as 95%.
For `Cn1cc(-c2ccc(CN3Cc4ccnc(Oc5cc(CC#N)ccc5F)c4C3=O)cc2)cn1` [Example 406, (4-fluoro-3-((2-(4-(1-methyl-1H-pyrazol-4-yl)benzyl)-3-oxo-2,3-dihydro-1H-pyrrolo[3,4-c]pyridin-4-yl)oxy)phenyl)acetonitrile], in that order: 40 nM and 97%.
As for `Cc1cc(-c2ccc(CN3Cc4ccnc(Oc5ccc(C(F)(F)F)cc5C)c4C3=O)cc2)cnn1` [Example 407, 2-(4-(6-methylpyridazin-4-yl)benzyl)-4-(2-methyl-4-(trifluoromethyl)phenoxy)-1,2-dihydro-3H-pyrrolo[3,4-c]pyridin-3-one], the EC50 is 74 nM and the “activity (%) at 10 μM” value is given as 89%.
For the compound `Cn1cc(-c2ccc(CN3Cc4ccnc(Oc5ccc(C(C)(C)O)cc5F)c4C3=O)cc2)cn1` [Example 408, 4-(2-fluoro-4-(2-hydroxypropan-2-yl)phenoxy)-2-(4-(1-methyl-1H-pyrazol-4-yl)benzyl)-1,2-dihydro-3H-pyrrolo[3,4-c]pyridin-3-one], the EC50 is 5.6 nM and the “activity (%) at 10 μM” value turned out to be 99%.
`Cn1cc(-c2ccc(CN3Cc4ccnc(Oc5ccc(C(C)(C)C#N)cc5F)c4C3=O)cc2)cn1` [Example 409, 2-(3-fluoro-4-((2-(4-(1-methyl-1H-pyrazol-4-yl)benzyl)-3-oxo-2,3-dihydro-1H-pyrrolo[3,4-c]pyridin-4-yl)oxy)phenyl)-2-methylpropanenitrile]: the EC50 is 3.4 nM and the “activity (%) at 10 μM” value is listed as 96%.
Turning to `Cc1cc(-c2ccc(CN3Cc4ccnc(Oc5ccc(C(C)(C)F)cc5F)c4C3=O)cc2)cnn1` [Example 410, 4-(2-fluoro-4-(2-fluoropropan-2-yl)phenoxy)-2-(4-(6-methylpyridazin-4-yl)benzyl)-1,2-dihydro-3H-pyrrolo[3,4-c]pyridin-3-one], the EC50 is 19 nM and the “activity (%) at 10 μM” value was found to be 99%.
With `C=C(C)c1ccc(Oc2nccc3c2C(=O)N(Cc2ccc(-c4cnnc(C)c4)cc2)C3)c(F)c1` [Example 411, 4-(2-fluoro-4-(prop-1-en-2-yl)phenoxy)-2-(4-(6-methylpyridazin-4-yl)benzyl)-1,2-dihydro-3H-pyrrolo[3,4-c]pyridin-3-one], the EC50 worked out at 61 nM and the “activity (%) at 10 μM” value came to 102%.
As for `Cc1nn(C)cc1-c1ccc(CN2Cc3ccnc(Oc4ccc(C(C)(C)O)cc4F)c3C2=O)cc1` [Example 412, 2-(4-(1,3-dimethyl-1H-pyrazol-4-yl)benzyl)-4-(2-fluoro-4-(2-hydroxypropan-2-yl)phenoxy)-1,2-dihydro-3H-pyrrolo[3,4-c]pyridin-3-one], the EC50 worked out at 8 nM and the “activity (%) at 10 μM” value stood at 101%.
As for `Cn1ccc(-c2ccc(CN3Cc4ccnc(Oc5ccc(C(C)(C)O)cc5F)c4C3=O)cc2)n1` [Example 413, 4-(2-fluoro-4-(2-hydroxypropan-2-yl)phenoxy)-2-(4-(1-methyl-1H-pyrazol-3-yl)benzyl)-1,2-dihydro-3H-pyrrolo[3,4-c]pyridin-3-one], the EC50 turned out to be 10 nM and the “activity (%) at 10 μM” value was 104%.

The values are drawn from US9777005B2 (Takeda Pharmaceutical Company Limited, priority 2012, dated 2017).
